Patent US4443436A, “C-20-Modified macrolide derivatives of the macrolide antibiotics tylosin, desmycosin, macrocin, and lactenocin” (Eli Lilly and Company, priority 1982, dated 1984)
In brackets after ≈: the same amount, converted by molar mass. Read-outs that look alike come from different tables or passages of the source.

Columns and labels:
[1] = tested on: Staphylococcus aureus; experiment: MIC, broth-dilution microtiter test, Staphylococcus aureus; format: cell-based; conditions: broth-dilution microtiter, read-out: MIC
Source text: (§1) The MIC's in Table X were obtained using conventional broth-dilution microtiter tests.

[2] = tested on: Staphylococcus aureus S13E; experiment: MIC, standard agar-dilution assay, Staphylococcus aureus S13E; format: cell-based; conditions: Staphylococcus aureus, S13E
[3] = tested on: Staphylococcus aureus X1.1; experiment: MIC, standard agar-dilution assay, Staphylococcus aureus X1.1; format: cell-based; conditions: Staphylococcus aureus, X1.1
[4] = tested on: Pasteurella multocida; experiment: Oral (gavage) treatment of Pasteurella multocida-infected chicks; format: in vivo, one-day-old chicks
Description: Many of the C-20 modified derivatives of this invention have also shown in vivo antibacterial activity against infections induced by gram-negative bacteria. Tables XII and XIII summarize the results of tests in which illustrative compounds were evaluated against Pasteurella infection in one-day-old chicks. The compounds were administered parenterally or orally after challenge of the chicks with Pasteurella multocida (0.1 ml of a 10^-4 dilution of a twenty-hour tryptose broth culture of an avian P. multocida given subcutaneously). In these tests, unless indicated otherwise, all non-medicated infected chicks died within 24 hours of Pasteurella challenge. In the tests summarized in Table XII the compounds were administered by subcutaneous injection at a dosage of 30 mg/kg, 1 and 4 hours post-challenge of the chicks with P. multocida. In the test summarized in Table XIII the compounds were administered by gavage at 1 and 5 hours post-challenge of the chicks with P. multocida.

[5] = tested on: Streptococcus Group 9960; experiment: MIC, standard agar-dilution assay, Streptococcus Group 9960; format: cell-based; conditions: GROUP9960
[6] = tested on: Pasteurella multocida 17E; experiment: MIC, broth-dilution microtiter test, Pasteurella multocida 17E; format: cell-based
Source text: as §1

[7] = tested on: Staphylococcus epidermidis EPI1; experiment: MIC, standard agar-dilution assay, Staphylococcus epidermidis EPI1; format: cell-based
[8] = tested on: Mycoplasma synoviae; experiment: MIC, broth-dilution microtiter test, Mycoplasma synoviae; format: cell-based; conditions: Mycoplasmopsis synoviae
Source text: as §1

[9] = tested on: Mycoplasma hyorhinis; experiment: MIC, broth-dilution microtiter test, Mycoplasma hyorhinis; format: cell-based
Source text: as §1

[10] = tested on: Staphylococcus aureus V41; experiment: MIC, standard agar-dilution assay, Staphylococcus aureus V41; format: cell-based; conditions: Staphylococcus aureus, V41
[11] = tested on: Staphylococcus epidermidis EPI2; experiment: MIC, standard agar-dilution assay, Staphylococcus epidermidis EPI2; format: cell-based; conditions: Staphylococcus epidermidis EPI2; agar dilution; read-out: MIC
[12] = tested on: Pasteurella multocida 60A; experiment: MIC, broth-dilution microtiter test, Pasteurella multocida 60A; format: cell-based
Source text: as §1

[13] = tested on: Mycoplasma hyopneumoniae; experiment: MIC, broth-dilution microtiter test, Mycoplasma hyopneumoniae; format: cell-based; conditions: Mesomycoplasma hyopneumoniae
Source text: as §1

[14] = tested on: Staphylococcus aureus X400; experiment: MIC, standard agar-dilution assay, Staphylococcus aureus X400; format: cell-based
[15] = tested on: Streptococcus bovis 80; experiment: MIC, broth-dilution microtiter test, Streptococcus bovis 80; format: cell-based; conditions: Streptococcus equinus
Source text: as §1

[16] = tested on: Streptococcus pyogenes C203; experiment: MIC, standard agar-dilution assay, Streptococcus pyogenes C203; format: cell-based; conditions: Streptococcus pyogenes, C203
[17] = tested on: Streptococcus Group D X66; experiment: MIC, standard agar-dilution assay, Streptococcus Group D X66; format: cell-based
[18] = tested on: Mycoplasma gallisepticum; experiment: MIC, broth-dilution microtiter test, Mycoplasma gallisepticum; format: cell-based; conditions: Mycoplasmoides gallisepticum; Mycoplasma gallisepticum; broth-dilution microtiter; read-out: MIC
Source text: as §1

[19] = tested on: Streptococcus pneumoniae Park I; experiment: microbe, parasite or virus in culture; format: cell-based
[20] = tested on: Streptococcus pyogenes C203; experiment: In vivo protection of mice experimentally infected with S. pyogenes C203; conditions: Streptococcus pyogenes, mice, doses given 1 and 4 hours post-infection
Description: The C-20 modified derivatives of this invention have shown in vivo antimicrobial activity against experimentally-induced infections in laboratory animals. When two doses of test compound were administered to mice experimentally infected with S. pyogenes C203, the activity observed was measured as an ED50 value [effective dose in mg/kg to protect 50% of the test animals: see Warren Wick, et al., J. Bacteriol. 81, 233-235 (1961)].

[21] = tested on: Pasteurella hemolytica 22C; experiment: MIC, broth-dilution microtiter test, Pasteurella hemolytica 22C; format: cell-based
Source text: as §1

[22] = tested on: Haemophilus influenzae R252; experiment: MIC, standard agar-dilution assay, Haemophilus influenzae R252; format: cell-based
[23] = tested on: Haemophilus influenzae Holt; experiment: MIC, standard agar-dilution assay, Haemophilus influenzae Holt; format: cell-based
[24] = Streptococcus Group 9960, agar dilution, read-out: MIC
[25] = Staphylococcus epidermidis, EPI1
[26] = Mycoplasma hyorhinis, broth-dilution microtiter, read-out: MIC
[27] = Mycoplasma hyopneumoniae, broth-dilution microtiter, read-out: MIC
[28] = Streptococcus bovis 80, broth-dilution microtiter, read-out: MIC
[29] = C203, sc, subcutaneous, read-out: ED50, Subcutaneous
[30] = C203, oral, read-out: ED50, Oral
[31] = Pasteurella hemolytica 22C, broth-dilution microtiter, read-out: MIC
[32] = Pasteurella multocida 60A, avian isolate, broth-dilution microtiter, read-out: MIC

| Structure (SMILES) | MIC [1] [µg/mL] | MIC [2] [µg/mL] | MIC [3] [µg/mL] | Number of Deaths/Number tested ([4]; 0.5 g/gal equivalent) | Number of Deaths/Number tested ([4]; 1.0 g/gal equivalent) | MIC [5, 24] [µg/mL] | MIC ([6]; Pasteurella multocida, 17E) [µg/mL] | MIC [7, 25] [µg/mL] | MIC [10] [µg/mL] | MIC [11] [µg/mL] | MIC [13, 27] [µg/mL] | MIC ([14]; Staphylococcus aureus, X400) [µg/mL] | MIC [15, 28] [µg/mL] | MIC [16] [µg/mL] | MIC [18] [µg/mL] | ED50 [20, 29] [mg/kg] | ED50 [20, 30] [mg/kg] | MIC [21, 31] [µg/mL] | MIC [8] [µg/mL] | MIC [17] [µg/mL] | also measured |
| --- | --- | --- | --- | --- | --- | --- | --- | --- | --- | --- | --- | --- | --- | --- | --- | --- | --- | --- | --- | --- | --- |
| CCC1OC(=O)CC(O)C(C)C(OC2OC(C)C(O)C(N(C)C)C2O)C(CCSc2ccccc2)CC(C)C(=O)C=CC(C)=CC1COC1OC(C)C(O)C(OC)C1OC (centres unmarked) [Compound 23, 20-DH-DO-20-(phenylthio)desmycosin] | 0.19 (≈ 0.219 µM) | 0.25 (≈ 0.289 µM) | 0.25 (≈ 0.289 µM) | 8/10 | 10/10 | 16 (≈ 18.5 µM) | 12.5 (≈ 14.4 µM) | 0.25 (≈ 0.289 µM) | 0.25 (≈ 0.289 µM) | 0.12 (≈ 0.139 µM) | > 25 | 0.25 (≈ 0.289 µM) | 6.25 (≈ 7.22 µM) | 0.25 (≈ 0.289 µM) | 0.09 (≈ 0.104 µM) | 10 | 17 | 25 (≈ 28.9 µM) | – | – | MIC ([8]; Mycoplasma synoviae, broth-dilution microtiter, read-out: MIC): 6.25 µg/mL (≈ 7.22 µM); MIC [9, 26]: > 50 µg/mL; MIC ([12]; Pasteurella multocida, 60A): 12.5 µg/mL (≈ 14.4 µM); MIC ([17]; Streptococcus Group D X66, agar dilution, read-out: MIC): 8 µg/mL (≈ 9.24 µM); MIC ([19]; Streptococcus pneumoniae Park I, agar dilution, read-out: MIC): 2 µg/mL (≈ 2.31 µM) |
| CCC1OC(=O)CC(O)C(C)C(OC2OC(C)C(O)C(N(C)C)C2O)C(CCOc2ccc(OC)cc2)CC(C)C(=O)C=CC(C)=CC1COC1OC(C)C(O)C(OC)C1OC (centres unmarked) [Compound 35, 20-DH-20-O-(p-Methoxyphenyl)desmycosin] | 0.39 (≈ 0.443 µM) | 0.25 (≈ 0.284 µM) | 0.25 (≈ 0.284 µM) | – | – | 8 (≈ 9.09 µM) | 12.5 (≈ 14.2 µM) | 0.25 (≈ 0.284 µM) | 0.25 (≈ 0.284 µM) | 0.12 (≈ 0.136 µM) | – | 0.25 (≈ 0.284 µM) | – | 1 (≈ 1.14 µM) | 0.39 (≈ 0.443 µM) | 1.6 | 11 | 25 (≈ 28.4 µM) | 0.78 (≈ 0.886 µM) | 4 (≈ 4.55 µM) | Number of Deaths/Number tested ([4]; 1.5 g/gal equivalent): 1/10; Number of Deaths/Number tested ([4]; 2.0 g/gal equivalent): 4/10; MIC [9, 26]: > 50 µg/mL; MIC ([12]; Pasteurella multocida, 60A): 12.5 µg/mL (≈ 14.2 µM); MIC [13]: 6.25 µg/mL (≈ 7.1 µM); MIC [15]; 80: 1.56 µg/mL (≈ 1.77 µM); MIC ([22]; Haemophilus influenzae, R252): 16 µg/mL (≈ 18.2 µM); MIC ([19]; Streptococcus pneumoniae): 1 µg/mL (≈ 1.14 µM) |
| CCC1OC(=O)CC(O)C(C)C(OC2OC(C)C(O)C(N(C)C)C2O)C(CCF)CC(C)C(=O)C=CC(C)=CC1COC1OC(C)C(O)C(OC)C1OC (centres unmarked) [Compound 22, 20-DH-DO-20-Fluorodesmycosin] | 3.12 (≈ 4.02 µM) | 0.25 (≈ 0.322 µM) | 0.25 (≈ 0.322 µM) | 6/10 | 0/10 | – | – | – | 0.25 (≈ 0.322 µM) | 0.12 (≈ 0.155 µM) | > 25 | – | 1.56 (≈ 2.01 µM) | 0.25 (≈ 0.322 µM) | 12.5 (≈ 16.1 µM) | 5 | 11 | > 50 | 50 (≈ 64.4 µM) | 8 (≈ 10.3 µM) | Number of Deaths/Number tested ([4]; 2.0 g/gal equivalent): 1/10; MIC [5]: 8 µg/mL (≈ 10.3 µM); MIC ([6]; Pasteurella multocida 17E, bovine isolate, broth-dilution microtiter, read-out: MIC): 25 µg/mL (≈ 32.2 µM); MIC ([7]; Staphylococcus epidermidis EPI1, agar dilution, read-out: MIC): 0.12 µg/mL (≈ 0.155 µM); MIC ([9]; Mycoplasma): 50 µg/mL (≈ 64.4 µM); MIC [12, 32]: 25 µg/mL (≈ 32.2 µM); MIC ([14]; Staphylococcus aureus X400, methicillin-resistant strain, agar dilution, read-out: MIC): 0.5 µg/mL (≈ 0.644 µM); MIC ([23]; Haemophilus influenzae Holt, ampicillin-sensitive strain, read-out: MIC): 16 µg/mL (≈ 20.6 µM); MIC ([22]; Haemophilus influenzae R252, ampicillin-resistant strain, read-out: MIC): 16 µg/mL (≈ 20.6 µM); MIC ([19]; Streptococcus pneumoniae): 2 µg/mL (≈ 2.58 µM) |
| CCC1OC(=O)CC(O)C(C)C(OC2OC(C)C(O)C(N(C)C)C2O)C(CCOc2ccc(C(=O)c3ccccc3)cc2)CC(C)C(=O)C=CC(C)=CC1COC1OC(C)C(O)C(OC)C1OC (centres unmarked) [Compound 37, 20-DH-20-O-(p-Benzoylphenyl)desmycosin] | 0.19 (≈ 0.199 µM) | 0.25 (≈ 0.262 µM) | 0.25 (≈ 0.262 µM) | – | – | – | 12.5 (≈ 13.1 µM) | 0.25 (≈ 0.262 µM) | 0.25 (≈ 0.262 µM) | 0.12 (≈ 0.126 µM) | 0.19 (≈ 0.199 µM) | 0.25 (≈ 0.262 µM) | 0.19 (≈ 0.199 µM) | – | 0.19 (≈ 0.199 µM) | 7.2 | 18 | – | 1.56 (≈ 1.63 µM) | 0.25 (≈ 0.262 µM) | Number of Deaths/Number tested ([4]; 1.5 g/gal equivalent): 10/10; MIC [5]: 0.5 µg/mL (≈ 0.524 µM); MIC ([9]; Mycoplasma): 0.78 µg/mL (≈ 0.817 µM); MIC [12, 32]: 25 µg/mL (≈ 26.2 µM); MIC ([23]; Haemophilus influenzae): 16 µg/mL (≈ 16.8 µM); MIC ([22]; Haemophilus influenzae, R252): 16 µg/mL (≈ 16.8 µM); MIC ([21]; Pasteurella, 22C): 12.5 µg/mL (≈ 13.1 µM) |
